According to US8222487B2, “Application of ERF genes from Bupleurum kaoi” (National Tsing Hua University, priority 2009, dated 2012):

How the values were obtained:
Psudomonas syringe = experiment: Inhibition of bacteria in BkERF transformed B. kaoi cells; assay type: cell-based; conditions: 6 days after infection, transformed B. kaoi cells overexpressing the gene
Text: (§1) The BkERF1, BkERF2.1, and BkERF2.2 genes are SEQ ID NO. 3, SEQ ID NO. 1 and SEQ ID NO. 2 respectively. The coding region of BkERFs was cloned into the multiple cloning site of the binary vector under the CaMV 35S promoter and the nopaline synthase termination sequence. The resulting vector was introduced into the Agrobacterium tumefaciens which was introduced into the cells of B. kaoi. The B. kaoi cells overexpressed BkERFs genes were observed using Western blot.
(§2) Bacteria suspension of a concentration about 10^8 cfu/ml was made from bacteria cultured 1-2 days with culture medium, and inoculated to 0.2 g BkERF transformed calli then grown in a 25° C. incubator. After six days, the calli was homogenized in 10 mM magnesium sulfate. Serial dilution of the bacteria was prepared and spread on nutrient agar plate containing 50 mg/L rifampicin. The plates were put in a 28° C. incubator for two days and then the numbers of bacteria were calculated.

Staphylococcus aureus = experiment: as above; assay type: cell-based; conditions: 6 days after infection, transformed B. kaoi cells overexpressing the gene
Text: as §1, §2

Substance: ERF1: B. kaoi ethylene response factor gene, ORF of 633 bp encoding 210 amino acids, overexpressed via binary vector
- Growth of bacteria in the transformed cells (bacterial numbers) (Psudomonas syringe): inhibited
- Growth of bacteria in the transformed cells (bacterial numbers) (Staphylococcus aureus): inhibited

Substance: ERF2.2: B. kaoi ethylene response factor gene, ORF of 702 bp encoding 233 amino acids, overexpressed via binary vector
- Growth of bacteria in the transformed cells (bacterial numbers) (Psudomonas syringe): inhibited
- Growth of bacteria in the transformed cells (bacterial numbers) (Staphylococcus aureus): inhibited

Substance: ERF2.1: B. kaoi ethylene response factor gene, ORF of 693 bp encoding 230 amino acids, overexpressed via binary vector
- Growth of bacteria in the transformed cells (bacterial numbers) (Psudomonas syringe): inhibited
- Growth of bacteria in the transformed cells (bacterial numbers) (Staphylococcus aureus): inhibited
